Assay results taken from article PMC6934184, “Selective DNA-PKcs inhibition extends the therapeutic index of localized radiotherapy and chemotherapy” (The Journal of Clinical Investigation, 2019).

Target: T1, CSF1R (FMS) (Homo sapiens, UniProt P07333)
T1 construct: purchased Thermo Fisher Scientific (Life Technologies) SelectScreen
Experiment: SelectScreen Z'LYTE
Type: biochemical
Procedure, shortened: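 Percent values come from Thermo SelectScreen profiling of NU5455, combining activity and binding assays. CSF1R was run in Z'LYTE format at Km app ATP, and CAMK1 in Adapta format with ATP listed at 10.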

T1 sequence (P07333 20-972): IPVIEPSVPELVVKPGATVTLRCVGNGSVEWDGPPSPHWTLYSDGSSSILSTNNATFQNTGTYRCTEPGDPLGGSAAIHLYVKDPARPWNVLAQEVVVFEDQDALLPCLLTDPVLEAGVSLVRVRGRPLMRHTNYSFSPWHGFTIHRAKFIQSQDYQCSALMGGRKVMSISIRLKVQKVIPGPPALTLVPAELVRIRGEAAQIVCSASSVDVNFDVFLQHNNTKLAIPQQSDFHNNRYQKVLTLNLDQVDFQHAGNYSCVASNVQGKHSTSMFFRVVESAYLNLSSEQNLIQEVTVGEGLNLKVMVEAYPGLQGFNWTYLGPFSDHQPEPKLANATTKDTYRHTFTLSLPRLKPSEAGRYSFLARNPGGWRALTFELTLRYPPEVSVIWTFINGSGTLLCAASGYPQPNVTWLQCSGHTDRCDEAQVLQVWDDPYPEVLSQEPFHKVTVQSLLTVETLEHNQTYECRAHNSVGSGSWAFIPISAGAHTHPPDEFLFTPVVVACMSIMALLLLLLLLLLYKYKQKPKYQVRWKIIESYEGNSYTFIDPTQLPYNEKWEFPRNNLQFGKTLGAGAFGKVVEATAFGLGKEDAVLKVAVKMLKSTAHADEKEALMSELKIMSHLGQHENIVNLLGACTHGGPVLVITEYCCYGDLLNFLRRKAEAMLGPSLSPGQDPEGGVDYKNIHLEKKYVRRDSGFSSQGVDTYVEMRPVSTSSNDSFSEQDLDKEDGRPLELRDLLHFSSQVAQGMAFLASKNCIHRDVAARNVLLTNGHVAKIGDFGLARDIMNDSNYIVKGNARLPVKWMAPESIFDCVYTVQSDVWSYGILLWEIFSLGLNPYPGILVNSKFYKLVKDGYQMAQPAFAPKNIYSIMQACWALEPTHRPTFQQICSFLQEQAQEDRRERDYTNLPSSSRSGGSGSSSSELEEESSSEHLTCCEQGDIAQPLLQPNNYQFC

Structure (SMILES): CN(C(=O)CN1CCOCC1)c1ccc2sc3c(-c4cccc5c(=O)cc(N6CC7CCC(C6)O7)oc45)cccc3c2c1 [NU5455]
- inhibition at 1 µM: 4.3%
